Data on 2 molecules can be found in ChEMBL document CHEMBL1240516, “Studies on ligand binding to histidine triad nucleotide binding protein 1” (Bioorg Med Chem, 2010).

Experiment [1] concerns the target T1, Adenosine 5'-monophosphoramidase HINT1 (Mus musculus, UniProt P70349).
T1 sequence (P70349 whole entry): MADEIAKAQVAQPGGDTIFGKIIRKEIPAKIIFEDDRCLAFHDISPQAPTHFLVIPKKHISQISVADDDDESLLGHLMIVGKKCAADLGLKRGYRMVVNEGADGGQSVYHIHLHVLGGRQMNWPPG
The experiment is described as follows: Binding affinity to mouse HINT1 by fluorescence quenching assay.

Experiment [2] concerns the target T1, Adenosine 5'-monophosphoramidase HINT1. The experiment is described as follows: Binding affinity to mouse HINT1 by NMR analysis.
For experiment [3] the target is unchanged. In words: Binding affinity to mouse HINT1 by HSQC spectra assay.

The Kd is a measure of binding affinity in units of concentration. Low readings indicate higher affinity, high ones lower affinity. Turning to `Nc1nc2c(ncn2[C@@H]2O[C@H](COP(=O)(O)O)[C@H](O)[C@@H]2O)c(=O)[nH]1` [E626], the results for the equilibrium dissociation constant (Kd) in experiment [1] and in experiment [2] were 67 µM and 60 µM, respectively.

Regarding `NC(=O)c1ncn([C@@H]2O[C@H](COP(=O)(O)O)[C@@H](O)[C@H]2O)c1N`, the equilibrium dissociation constant (Kd) in experiment [1] is 1100 µM; in experiment [3], 1200 µM.
